Measured values published in BindingDB's records for patent US20240425453 (Neophore, 2024).

Molecular target: T1, Mismatch repair endonuclease PMS2 (UniProt P54278)
T1 sequence (P54278 whole entry): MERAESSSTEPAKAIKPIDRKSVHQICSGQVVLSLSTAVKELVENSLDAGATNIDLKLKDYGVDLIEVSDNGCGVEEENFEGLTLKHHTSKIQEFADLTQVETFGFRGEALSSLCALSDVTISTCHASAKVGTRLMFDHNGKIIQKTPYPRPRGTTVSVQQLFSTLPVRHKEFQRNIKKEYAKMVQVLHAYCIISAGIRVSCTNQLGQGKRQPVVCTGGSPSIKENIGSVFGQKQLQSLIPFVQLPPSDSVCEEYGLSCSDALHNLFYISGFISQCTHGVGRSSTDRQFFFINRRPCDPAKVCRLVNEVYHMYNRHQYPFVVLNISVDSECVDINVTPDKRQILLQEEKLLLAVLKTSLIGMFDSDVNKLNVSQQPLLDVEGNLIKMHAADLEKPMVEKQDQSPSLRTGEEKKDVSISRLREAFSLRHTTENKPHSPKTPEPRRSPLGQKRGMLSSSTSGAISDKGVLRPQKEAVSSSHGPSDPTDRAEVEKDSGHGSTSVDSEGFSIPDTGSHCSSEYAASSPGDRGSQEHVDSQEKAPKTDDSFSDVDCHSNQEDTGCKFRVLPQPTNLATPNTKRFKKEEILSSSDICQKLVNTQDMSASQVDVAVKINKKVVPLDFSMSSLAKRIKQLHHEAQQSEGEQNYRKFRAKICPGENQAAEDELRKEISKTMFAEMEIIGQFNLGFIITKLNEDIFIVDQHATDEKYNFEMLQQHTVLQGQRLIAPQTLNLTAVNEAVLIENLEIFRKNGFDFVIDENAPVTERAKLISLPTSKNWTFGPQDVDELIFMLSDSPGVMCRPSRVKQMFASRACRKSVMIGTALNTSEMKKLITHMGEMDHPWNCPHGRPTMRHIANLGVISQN
Test: Fluorescence Polarization Assay for PMS2

IC50: > 1000 nM
Structure (SMILES): C=C(CN(C)C)C(=O)Nc1cccc2c1CN(C(=O)c1c(O)cc(O)c(C)c1OC)C2 [US20240425453, Example 36]
